The results in this text go back to PubChem BioAssay (NCI).

Each structure is given as a SMILES string.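 Briefly, cells in 96-well plates were exposed to five compound concentrations for 48 h, and endpoints were estimated by linear interpolation. TGI denotes the concentration required for complete inhibition of growth.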

Test in all cases: NCI-60 cell line screen, 48 h
Experiment [1] has as its system LOX IMVI melanoma.
In experiment [2] the test system is XF 498 CNS.
Experiment [3] concerns KM20L2 colon.
Experiment [4] has as its system M19-MEL melanoma.
For experiment [5], the system named is SNB-78 CNS.
Experiment [6] concerns DMS 114 small cell lung.
The subject of experiment [7] is LXFL 529 NSCLC.
Experiment [8] has as its system DMS 273 small cell lung.
In experiment [9] the test system is DLD-1 colon.
The test system of experiment [10] is HOP-18 NSCLC.

As for `Cc1nc2c(s/c(=N\N)n2-c2ccccc2)c(=O)n1C`, the TGI in experiment [1], in experiment [2], in experiment [3], in experiment [4], in experiment [5] and in experiment [6] was greater than 100 µM each time. Further, the TGI in experiment [7] and in experiment [8] was greater than 100 µM each time.

Compound `N#CCCN(CCC#N)c1ccc(/C=C2\N=C(c3ccccc3)N(c3ccccc3)C2=O)cc1` yielded a TGI in [1] greater than 100 µM.

In turn, `OCC1(CNc2cc(Cl)ncn2)CCC1` registered a TGI in experiment [1] greater than 100 µM.

Compound `COc1cc(C2SC(N)=Nc3c2c(C)nn3C(=O)c2ccc(Cl)cc2)ccc1O` (stereo not given) displayed a TGI in experiment [1] greater than 10 µM.

For the compound `CC1CC/C(=C\c2ccc(F)cc2)C2=C1C(c1ccc(F)cc1)n1c(s/c(=C\c3ccc(Cl)cc3)c1=O)=N2` (stereo not given), the TGI in [1] is greater than 100 µM.

`O=C(O)CCCN=C(C(=NCCCC(=O)O)c1ccccc1)c1ccccc1` came in with a TGI in experiment [1] greater than 100 µM.

For the compound `CN1C(=O)C(O)C[C@@H]1c1ccc(F)cc1` (stereo not given in full), in experiment [1], the TGI was greater than 100 µM.

Compound `N=c1oc2ccc(Cl)cc2cc1C(=O)NC1CCCCC1` registered a TGI in [1] greater than 100 µM.

`O=C(NC(Cc1ccccc1)P(=O)(O)c1ccccc1)OCc1ccccc1` (stereo not given): the TGI in [1] is greater than 100 µM.

On to `COc1cc2c3c4c1OCc1c5c(cc(c1-4)CC3[N+](C)(C)CC2)OCO5` (stereo not given), for which the TGI in experiment [1] is greater than 100 µM.

Take `NCCSc1nc(N)c2ncn(C3OC(CO)C(O)C3O)c2n1` (stereo not given): the TGI in experiment [1], in experiment [2], in experiment [9], in [3], in [10] and in experiment [4] was greater than 100 µM in each case. Also, the TGI in experiment [5], in experiment [6] and in experiment [8] was greater than 100 µM in each case.

For `COc1ccc(NC(C)=O)cc1N1C(=O)/C(=C\c2cccc(Oc3ccccc3)c2)SC1c1ccccc1` (stereo not given), the TGI in experiment [1] amounted to 55.5 µM.

In experiment [1], `Fc1ccc(C(OCCN2CCC3CCC(C2)N3C/C=C/c2cccnc2)c2ccc(F)cc2)cc1` (stereo not given) gave a TGI of 27 µM.

Regarding `COC(=O)c1ccccc1Nc1ccccc1C(=O)OC`, in experiment [1], the TGI is greater than 100 µM.

For `N#C/C=C\c1ccc(-c2cc(C(F)(F)F)cc(C(F)(F)F)c2)o1`, in [1], the TGI was greater than 100 µM.

Consider `CCN1CCC(O)(/C=C/c2ccc(Cl)cc2)C(C(=O)/C=C/c2ccc(Cl)cc2)C1` (stereo not given), for which the TGI in experiment [1] was 32.4 µM; in [2], greater than 100 µM; in experiment [9] it was 33.8 µM; in experiment [3], 99.3 µM; in [4] it was 92.9 µM; in [5], greater than 100 µM. The figures for the TGI in [6], in [7] and in experiment [8] were greater than 100 µM, 28 µM and 60.2 µM, respectively.

`CC(C)(C)c1cc2c(O)c(c1)COCc1cc(C(C)(C)C)cc(c1O)COCc1cc(C(C)(C)C)cc(c1O)COC2` gave a TGI in experiment [1] greater than 100 µM.

In experiment [1], `COc1ccc(-c2cc(-c3ccccc3)nc(N)n2)c(O)c1` showed a TGI greater than 100 µM.

Regarding `CCOC(=O)c1c[nH]c2cc3c(cc2c1=O)CCS3`, the TGI in [1] was greater than 100 µM.

Turning to `CC(C)[C@H]1NC(=O)[C@H]2N=C(O[C@@H]2C)[C@@H]2CCCN2C(=O)[C@H](Cc2ccccc2)NC(=O)[C@@H]2COC(=N2)[C@@H](Cc2ccccc2)NC(=O)[C@@H]2COC1=N2`, the TGI in experiment [1] was greater than 100 µM.

In turn, `O=C1Cc2c([nH]c3cc(Br)ccc23)-c2ccccc2N1` displayed a TGI in experiment [1] of 37 µM.

Regarding `CCOC(=O)C(C(=O)OCC)C(NC(=O)Nc1cc(C(F)(F)F)ccc1OC)(C(F)(F)F)C(F)(F)F`, the TGI in experiment [1] is greater than 100 µM.

In experiment [1], `Cc1cccc2c(=O)c3c(O)cc4c(c3n(C)c12)C=CC(C)(C)O4` showed a TGI greater than 100 µM.

`CCCC(=O)OC1=C(c2ccccc2)Sc2ccccc2-n2cccc21` displayed a TGI in experiment [1] greater than 10 µM.

In the case of `Cc1cc2nc3c(C#N)c4c(c(Nc5ccc(Cl)cc5)n3c2cc1C)CCC4`, in experiment [1], the TGI worked out at 32.8 µM.

The compound `CC(=O)Oc1cc2c(n(C)c1=O)CCC2` came in with a TGI in experiment [1] greater than 100 µM.

Take `O=c1[nH]c(Br)nc2c(N3CCCCC3)c[nH]c12`: the TGI in [1], in experiment [2], in experiment [9], in [3], in experiment [10] and in experiment [4] was greater than 100 µM throughout. Besides, the TGI in experiment [5], in [6], in experiment [7] and in experiment [8] was greater than 100 µM each time.

Compound `O=C(CSCC(=O)N/N=C/c1ccncc1)N/N=C/c1ccncc1` came in with a TGI in experiment [1] greater than 100 µM.

`CC(C)C(=O)CP(=O)(O)O` showed a TGI in experiment [1] greater than 100 µM.

In the case of `O=c1cc(-c2cccc(Br)c2)[nH]c2cc3c(cc12)OCO3`, the TGI in experiment [1] is 17.4 µM; in experiment [2], 14.5 µM; in [9], 31.2 µM; in experiment [10], 46.7 µM; in experiment [4] it was greater than 100 µM; in [5], 20.5 µM. Besides, the TGI in experiment [6] stood at 11 µM; in experiment [7] it was 18.6 µM; in experiment [8], 22.4 µM.
